{"source": "patent US8809344B2", "about": "“Compounds, compositions, and methods for control of hepatitis C viral infections” (priority 2008, dated 2014)", "key": {"[1]": {"test_system": "all other chimeric replicons and the genotype 2a parental replicon", "assay": "Other chimeric replicons and genotype 2a parental replicon in Huh7.5 cells", "assay_type": "cell-based", "conditions": "Hepatitis C virus", "description": "That NS4B is the target of 80978 was confirmed by a complementary approach. The differential response to 80978 by HCV genotype 1b and 2a replicons allowed the use of chimeric replicons to narrow down the region of the HCV genotype 1b NS4B coding region that confers sensitivity to 80978. The nucleotide sequence of the wild type HCV genotype 2a NS4B is provided as SEQ ID NO: 7 and the wild type HCV genotype 2a NS4B protein sequence is provided as SEQ ID NO:8. Using a plasmid containing an 80978-resistant stable HCV genotype 2a subgenomic reporter replicon cDNA, six replacement, or chimeric constructs were made, where the regions encoding the following amino acids of NS4B were replaced with the regions encoding the corresponding amino acids of NS4B from HCV genotype 1b: (i) 7-254, (ii) 7-52, (iii) 53-254, (iv) 219-254, (v) 7-52 and 219-254, and (vi) 53 to 218. The full-length NS4B protein is 261 amino acids in length and is provided as SEQ ID NO:2. Thus, if any of these segments of NS4B from genotype 1b are sufficient to confer 80978-sensitivity to a genotype 2a HCV replicon, it will render the chimeric genotype 1b/genotype 2a replicon sensitive to the compound.\nResponse to 80978 was measured initially in unselected cells. […] All of the chimeric and wild type control constructs were responsive to Cyclosporin A (CsA)."}, "[2]": {"test_system": "stable genotype 1b (Con1 strain) subgenomic replicon in control Clone A cells", "assay": "Control Clone A cells, HCV RNA by quantitative RT-PCR", "assay_type": "cell-based", "conditions": "Hepatitis C virus, 72 h", "method": "In an effort to gain insight into the target of 80978, Clone A cells were selected for resistance to 80978. Clone A cells are a human hepatoma cell line that contains a stable genotype 1b (Con1 strain) subgenomic replicon. Cells were cultured for 12 days in medium containing 10 μM 80978 and 1 mg/ml Geneticin™ (Invitrogen). Medium was changed every 3-4 days to replenish compound, and cells were split as needed to maintain subconfluent cultures. After 12 days of growth in the presence of 10 μM 80978, the concentration of 80978 was increased to 20 μM and cultured for an additional 19 days. Control Clone A cells were grown in parallel in the presence of diluent only. After this culture period, cells were evaluated for response to 80978.\nControl cells and cells that had been cultured in the presence of 80978 were treated in triplicate with 3-fold serial dilutions of compound for 72 hours. At the end of this incubation period, total RNA was extracted, and HCV RNA levels were measured by quantitative RT-PCR using primers that recognize the 3′NTR."}, "[3]": {"test_system": "genotype 1b (Con1 strain) replicon with NS4B F1809L mutation", "assay": "F1809L mutant reporter replicon IVT RNA in Huh7.5 cells", "assay_type": "cell-based", "conditions": "Hepatitis C virus", "description": "To identify nucleotide changes that confer resistance to 80978, replicon RNA was reverse transcribed and amplified from total RNA extracted from 80978-resistant and control Clone A cells. […] One silent mutation at amino acid 1771 was also observed. Each mutation was introduced independently into a stable genotype 1b (Con1 strain) subgenomic reporter replicon plasmid via site-directed mutagenesis. […] The sequence of the wild type NS4B encoding sequence is provided as SEQ ID NO:1, the sequence of the mutated NS4B nucleotide sequence encoding the F1809V mutation is provided as SEQ ID NO:3, and the sequence of the mutated NS4B nucleotide sequence encoding the F1809L mutation is provided as SEQ ID NO:5. The sequence of the wild type NS4B protein is provided as SEQ ID NO:2, the sequence of the mutated NS4B protein with the F1809V mutation is provided as SEQ ID NO:4, and the sequence of the mutated NS4B nucleotide sequence encoding the F1809L mutation is provided as SEQ ID NO:6. […] A differential response was observed between cells electroporated with different replicon RNAs."}, "[4]": {"test_system": "chimeric APV112 HCV (genotype 2a with genotype 1b NS4B amino acids 53 to 218)", "assay": "HCV APV112 viral infectivity assay in Huh7.5 cells, 3′NTR RNA by realtime quantitative PCR", "assay_type": "cell-based, hepatitis C virus", "conditions": "for Log change in 3′NTR copies relative to 1.0% DMSO (GAPDH normalized): 48 hours; for chimeric APV112 viral infectivity: sensitive genotype 1b NS4B region", "method": "Inhibition of HCV infectivity by AP0080978 and its analogs (AP0080977, non-active enantiomer; AP0089652, racemate; and AP0080935, an aromatic, non-optically active analog of AP0080978) was assayed by exposing cells with infectious chimeric HCV virions in the presence of the compounds. This was accomplished by use of an HCV cell culture system essentially as described in Pietschmann, T. et al. (2006) 103(19): 7408-13, Proc. Natl. Acad. Sci. USA; and elsewhere. Two viral constructs were utilized to characterize inhibition of viral infectivity (FIG. 4). Construct APV23 (FL-J6/JFH) is a full-length, chimeric, genotype 2a HCV genome containing the HCV core through the NS2 first transmembrane domain coding region from the J6 HCV isolate linked to the second NS2 transmembrane domain NS3 through NS5B coding region of HCV strain JFH-1, as shown in FIG. 4 (i.e. an HCV chimera with the “C3 Junction” described in Pietschmann, T. et al. (2006) Proc. Natl. Acad. Sci. USA 103(19): 7408-13; see page 7409 and FIG. 2A of Pietschmann, T. et al.). Construct APV112 was generated by replacing nucleotides encoding amino acids 53 to 218 of the NS4B gene of the APV23 sequence with a corresponding sequence from a genotype 1b (Con1 strain).\nHuh7.5 cells were plated at a density of 20,000 cells per well in 96-well plates. The cells were exposed to the chimeric HCV virions at a multiplicity of infection of 0.01. Potential inhibitory compounds were added simultaneously with the chimeric virus. Cells were incubated for 48 hours and then the levels of HCV 3′NTR and GAPDH RNA were quantified by realtime quantitative PCR. Data were analyzed by the comparative Ct method with delta-delta Ct determined relative to 1.0% DMSO. Results in FIGS. 5 and 6 are depicted as log change in 3′NTR copies relative to 1.0% DMSO."}}}
{"smiles": "O=C(NCc1cccs1)c1nn2c(c1Cl)N[C@H](c1ccco1)C[C@@H]2C(F)(F)F", "note": "(single isomer, unassigned) [Compound 80978]", "values": [{"measurement": "EC50", "setting": "[1]", "result": "> 20", "unit": "µM"}, {"measurement": "EC50", "setting": "[2]", "result": 1.76, "unit": "µM"}, {"measurement": "EC50", "setting": "[3]", "result": "> 22.5", "unit": "µM"}, {"measurement": "potency in viral infectivity assays relative to HCV replicon assays", "setting": "[4]", "result": "significantly more potent"}, {"measurement": "greater log change relative to the log change of the 89652 racemate", "setting": "[4]; 0.02 μM, APV112", "result": 5.3, "unit": "fold"}, {"measurement": "Log change in 3′NTR copies relative to 1.0% DMSO (GAPDH normalized)", "setting": "[4]; 0.02 μM, APV112", "result": "−0.79"}, {"measurement": "Log change in 3′NTR copies relative to 1.0% DMSO (GAPDH normalized)", "setting": "[4]; 0.07 μM, APV112", "result": "−1.29"}, {"measurement": "Log change in 3′NTR copies relative to 1.0% DMSO (GAPDH normalized)", "setting": "[4]; 0.22 μM, APV112", "result": "−1.52"}, {"measurement": "Log change in 3′NTR copies relative to 1.0% DMSO (GAPDH normalized)", "setting": "[4]; 0.67 μM, APV112", "result": "−1.67"}, {"measurement": "Log change in 3′NTR copies relative to 1.0% DMSO (GAPDH normalized)", "setting": "[4]; 2 μM, APV112", "result": "−1.49"}, {"measurement": "potency relative to control HCV inhibitors 2′CMeA, VX-950, cyclosporin A and a-CD81 antibody (JS81)", "setting": "[4]; FIG. 5, APV112", "result": "significantly more potent"}, {"measurement": "chimeric APV112 viral infectivity", "setting": "[4]; FIG. 5, listed as AP 80978", "result": "able to inhibit"}, {"measurement": "chimeric APV112 viral infectivity", "setting": "[4]; FIG. 5, listed as AP0080978", "result": "reduced"}]}
